From patent US20240190828A1, “Small Molecule Inhibitors of PBRM1-BD2” (The Medical College of Wisconsin, Inc., priority 2021, published 2024)
Like-named read-outs stand apart in the source and are kept apart here.

Key:
RWPE-1 cells = assay: Cell viability assay (CellTiter-Glo); format: cell-based, human; settings: 10, 1 and 0.1 μM
Procedure: (§1) Cell Viability Assays. Cells were seeded in a 96-well plate and incubated for 12-24 h prior to initial treatment. The number of cells per well was chosen empirically based on cell growth rates (LNCaP-5,000 cells/well, PC3 and RWPE-1-3,000 cells per well, HEK293T-1,000 cells/well). Cells were treated with either DMSO control or serial dilutions of inhibitors and media with compound was refreshed every 48 h.

PC3 cells = assay: Cell viability assay (CellTiter-Glo); format: cell-based, human; settings: 10, 1 and 0.1 μM
Procedure: as §1

HEK293T cells = assay: Cell viability assay (CellTiter-Glo); format: cell-based, human; settings: dose curve
Procedure: as §1

ASH1L = ASH1L (Homo sapiens (Human), UniProt Q9NR48); assay: DSF selectivity profiling; format: binding
Procedure: (§2) Differential Scanning Fluorimetry (DSF). Bromodomain DSF Tm assays were performed using an Mx3005P (Stratagene) PCR detection system and low profile 96-well PCR plates (UltraFlux, Flat Top, SSI 3400-00S). […] The temperature was raised by 1° C./min from 25-95° C., and fluorescence readings were taken at each interval. Melting curves were analyzed using our online interactive fitting tool for thermofluor experiments (https://dsf-analysis.herokuapp.com/DSF-analysis) and plotted using GraphPad Prism.

CREBBP = CREBBP (Homo sapiens (Human), UniProt Q92793); assay: DSF selectivity profiling; format: binding
Procedure: as §2

BRD2-BD2 = BRD2-BD2 (Homo sapiens (Human), UniProt P25440); assay: DSF selectivity profiling; format: binding
Procedure: as §2

PCAF = PCAF (Homo sapiens (Human), UniProt Q92831); assay: DSF selectivity profiling; format: binding
Procedure: as §2

BRD7 = BRD7 (Homo sapiens (Human), UniProt Q9NPI1); assay: DSF selectivity profiling; format: binding
Procedure: as §2

BRD4-BD1 = BRD4-BD1 (Homo sapiens (Human), UniProt O60885); assay: DSF selectivity profiling; format: binding
Procedure: as §2

p300 = p300 (Homo sapiens (Human), UniProt Q09472); assay: DSF selectivity profiling; format: binding
Procedure: as §2

BRD3-BD1 = BRD3-BD1 (Homo sapiens (Human), UniProt Q15059); assay: DSF selectivity profiling; format: binding
Procedure: as §2

BRD4-BD2 = BRD4-BD2 (Homo sapiens (Human), UniProt O60885); assay: DSF selectivity profiling; format: binding
Procedure: as §2

BRD3-BD2 = BRD3-BD2 (Homo sapiens (Human), UniProt Q15059); assay: DSF selectivity profiling; format: binding
Procedure: as §2

BRDT-BD1 = BRDT-BD1 (Homo sapiens (Human), UniProt Q58F21); assay: DSF selectivity profiling; format: binding
Procedure: as §2

CECR2 = CECR2 (Homo sapiens (Human), UniProt Q9BXF3); assay: DSF selectivity profiling; format: binding
Procedure: as §2

SMARCA2 [1] = biological target: T1, SMARCA2 (Homo sapiens (Human), UniProt P51531); assay: DSF selectivity profiling; format: binding
Procedure: as §2

TRIM33A = TRIM33A (Homo sapiens (Human), UniProt Q9UPN9); assay: DSF selectivity profiling; format: binding
Procedure: as §2

[2] = Solubility at concentrations tested in the AlphaScreen assay
Procedure: AlphaScreen. […] All reagents were diluted in Epigenetic Buffer (5×), 2 μM TCEP, and 0.5% v/v Tween-20. The assay used a final volume of 40 μL. Stock solutions of inhibitors in DMSO were made at eight different concentrations (100 mM, 10 mM, 1 mM, 300 μM, 100 μM, 30 μM, 10 μM, 3 μM). 0.4 μL of inhibitor DMSO stocks were further diluted to 10 μL in the buffer. […] The mixture (40 μL) was further incubated for 1 h in a dark room and the luminescence was read on a BioTek Cytation5 Imaging Reader using an AlphaScreen detection filter cube. Data was plotted in GraphPad Prism using non-linear regression dose-response three variable slopes.

PBRM1-BD5 = PBRM1-BD5 (Homo sapiens (Human), UniProt Q86U86); settings: read-out: Kd PBRM1-BD5; ITC; NB = did not bind
Procedure: (§3) Binding affinities of inhibitors towards PBRM1-BD2, PBRM1-BD5, SMARCA2, SMARCA4, and ASH1L were determined using a VP-ITC instrument (MicroCal). […] Protein concentrations were determined via the method of Bradford.^1 The buffer used for all ITC experiments consisted of 50 mM HEPES (pH 7.5 at 20° C.), 500 mM NaCl, 5% v/v glycerol, and 1% v/v DMSO; except for experiments involving PBRM1-BD2 whose buffer consisted of 100 mM Na2PO4 (pH 7.5 at 20° C.), 100 mM NaCl, 5% v/v glycerol, and 1% v/v DMSO. Kd values were determined by least-squares fitting to the raw data using Origin (OriginLab).

PBRM1-BD2 [3] = biological target: T2, PBRM1-BD2 (Homo sapiens (Human), UniProt Q86U86); assay: biochemical; format: binding
Procedure: Protein-detected NMR-based fragment screening has the advantage of providing information about both binding affinity and the amino acid residues involved in binding.
NMR spectroscopy. Automated NMR data collection was performed on ^15N-labeled PBRM1-BD2 (50 μM) by using ^1H,^15N SOFAST-HMQC experiments. […] The total time for screening 85 or 82 samples each containing 12 fragments or DMSO by ^1H,^15N SOFAST-HMQC was 46 h (˜32 min/sample). […] All NMR data were processed using NMRPipe^4 in NMRbox.^5 Spectra were processed by using in-house automated Python scripts in NMRPipe,^4 and chemical shifts perturbation were analyzed using SPARKY.^6 Total ^1H/^15N chemical shift perturbations and equilibrium dissociation constants (Kd) were calculated as reported.^2

PBRM1-BD2 [4] = biological target: T2, PBRM1-BD2; assay: AlphaScreen competition assay, His6-tagged PBRM1-BD2 and biotinylated H3K14ac peptide; format: binding; settings: 0.2 μM His6-PBRM1-BD2, 0.1 μM biotinylated H3K14ac peptide
PBRM1-BD2 [5] = biological target: T2, PBRM1-BD2; settings: read-out: Kd PBRM1-BD2; ITC; NB = did not bind (heat below 0.1 μcal per second)
Procedure: as §3

PBRM1-BD2 [6] = biological target: T2, PBRM1-BD2; assay: biochemical; format: binding; settings: read-out: PBRM1-BD2 ΔTm, DSF, 10 μM protein, 100 μM inhibitor, vs apoprotein
Procedure: DSF measures protein unfolding by monitoring the fluorescence of the SYPRO Orange dye as a function of temperature; positive thermal shifts indicate ligand binding induced stabilization of the protein.
as §2

SMARCA4 [7] = biological target: T3, SMARCA4 (Homo sapiens (Human), UniProt P51532); assay: Isothermal titration calorimetry (ITC); format: binding; settings: NB = did not bind
Procedure: as §3

SMARCA2 [8] = biological target: T1, SMARCA2; assay: Isothermal titration calorimetry (ITC); format: binding; settings: NB = did not bind
Procedure: as §3

[9] = tested on: other tested bromodomains; assay: DSF selectivity panel of 22 bromodomains; format: binding, human; settings: bromodomains other than PBRM1-BD2, -BD3, -BD5
Procedure: as §2

SMARCA4 [10] = biological target: T3, SMARCA4; assay: DSF selectivity profiling; format: binding
Procedure: as §2

T2 sequence (Q86U86 177-287): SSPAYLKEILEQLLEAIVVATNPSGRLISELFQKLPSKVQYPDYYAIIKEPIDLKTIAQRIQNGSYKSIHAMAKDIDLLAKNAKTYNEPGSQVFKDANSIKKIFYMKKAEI
BRD3-BD2, sequence (Q15059 306-415): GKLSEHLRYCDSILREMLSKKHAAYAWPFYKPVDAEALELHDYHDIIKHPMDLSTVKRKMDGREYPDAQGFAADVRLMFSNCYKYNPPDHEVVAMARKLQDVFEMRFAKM
PCAF, sequence (Q92831 723-827): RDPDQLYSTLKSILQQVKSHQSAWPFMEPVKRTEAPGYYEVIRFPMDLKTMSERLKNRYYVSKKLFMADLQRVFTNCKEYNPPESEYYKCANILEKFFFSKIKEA
CECR2, sequence (Q9BXF3 434-538): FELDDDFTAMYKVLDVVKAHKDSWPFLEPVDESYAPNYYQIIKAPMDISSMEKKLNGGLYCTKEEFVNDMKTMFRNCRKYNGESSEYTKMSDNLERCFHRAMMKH
CREBBP, sequence (Q92793 1085-1192): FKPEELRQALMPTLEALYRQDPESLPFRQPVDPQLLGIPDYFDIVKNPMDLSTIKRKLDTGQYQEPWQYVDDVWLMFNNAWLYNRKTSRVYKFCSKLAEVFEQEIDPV
BRD7, sequence (Q9NPI1 131-235): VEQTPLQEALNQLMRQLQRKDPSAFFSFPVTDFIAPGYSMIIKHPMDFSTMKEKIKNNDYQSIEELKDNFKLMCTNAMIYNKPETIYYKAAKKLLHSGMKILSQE
T3 sequence (P51532 1453-1564): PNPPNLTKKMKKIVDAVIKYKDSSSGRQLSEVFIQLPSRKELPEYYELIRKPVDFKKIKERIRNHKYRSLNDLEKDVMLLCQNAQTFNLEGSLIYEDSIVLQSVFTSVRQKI
T1 sequence (P51531 1378-1506): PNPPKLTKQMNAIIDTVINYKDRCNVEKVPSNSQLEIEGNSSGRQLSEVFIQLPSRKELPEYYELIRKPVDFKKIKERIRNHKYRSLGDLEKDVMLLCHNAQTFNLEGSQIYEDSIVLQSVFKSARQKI
TRIM33A, sequence (Q9UPN9 957-1080): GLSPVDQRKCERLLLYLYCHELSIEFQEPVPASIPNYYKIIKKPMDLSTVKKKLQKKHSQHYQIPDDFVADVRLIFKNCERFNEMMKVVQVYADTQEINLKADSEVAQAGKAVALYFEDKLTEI
BRD3-BD1, sequence (Q15059 34-140): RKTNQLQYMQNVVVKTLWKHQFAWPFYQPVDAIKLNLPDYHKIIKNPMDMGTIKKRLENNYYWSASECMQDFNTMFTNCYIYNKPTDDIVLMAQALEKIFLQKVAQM
BRD2-BD2, sequence (P25440 344-453): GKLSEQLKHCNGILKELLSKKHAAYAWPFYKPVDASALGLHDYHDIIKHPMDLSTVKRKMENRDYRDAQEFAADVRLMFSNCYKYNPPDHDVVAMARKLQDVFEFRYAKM
p300, sequence (Q09472 1049-1156): as the sequence (Q92793 1085-1192) above, with N47S, V73I, F93Y, A98S counted along it
PBRM1-BD5, sequence (Q86U86 653-763): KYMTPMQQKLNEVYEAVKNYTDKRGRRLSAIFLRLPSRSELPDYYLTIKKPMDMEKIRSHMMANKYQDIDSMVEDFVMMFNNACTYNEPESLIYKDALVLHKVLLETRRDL

Cc1cccc(C2NC(=O)c3c(Cl)cccc3N2)c1C (centres unmarked) [Compound 25, 5-Chloro-2-(2,3-dimethylphenyl)-2,3-dihydroquinazolin-4(1H)-one]
growth inhibition of RWPE1 cells (RWPE-1 cells): also inhibits the PC3, RWPE1, and HEK293T cells similarly
growth inhibition of PC3 cells (PC3 cells): also inhibits the PC3, RWPE1, and HEK293T cells similarly
growth inhibition of HEK293T cells (HEK293T cells): also inhibits the PC3, RWPE1, and HEK293T cells similarly
ASH1L ΔTm (ASH1L): −0.8 °C
CREBBP ΔTm (CREBBP): 0.6 °C
BRD2-BD2 ΔTm (BRD2-BD2): 0.2 °C
PCAF ΔTm (PCAF): 0.1 °C
BRD7 ΔTm (BRD7): 0.0 °C
BRD4-BD1 ΔTm (BRD4-BD1): 0.6 °C
p300 ΔTm (p300): 0.6 °C
BRD3-BD1 ΔTm (BRD3-BD1): 0.4 °C
BRD4-BD2 ΔTm (BRD4-BD2): −4.2 °C
BRD3-BD2 ΔTm (BRD3-BD2): 0.4 °C
BRDT-BD1 ΔTm (BRDT-BD1): 0.1 °C
CECR2 ΔTm (CECR2): 0.8 °C
SMARCA2 ΔTm (SMARCA2 [1]): 0.0 °C
TRIM33A ΔTm (TRIM33A): 0.3 °C

Cc1cc(C)c(C2NC(=O)c3c(Cl)cccc3N2)c(C)c1 (centres unmarked) [Compound 22, 5-Chloro-2-(2,4,6-trimethylphenyl)-2,3-dihydroquinazolin-4(1H)-one]
solubility in the AlphaScreen assay [2]: solubility issues

O=C1NC(c2c(F)cccc2Cl)Nc2ccccc21 (centres unmarked) [Compound 5, 2-(2-Chloro-6-fluorophenyl)-2,3-dihydroquinazolin-4(1H)-one]
Kd (PBRM1-BD5): 179 µM
Kd (PBRM1-BD2 [3]): 50 µM
Kd (PBRM1-BD2 [3]; NMR titration, chemical shift perturbations vs fragment concentration, read-out: Kd): 45.3 ± 8.1 µM
IC50 (PBRM1-BD2 [4]): 4.2 ± 1.3 µM
Kd (PBRM1-BD2 [5]): 18.4 µM
ΔTm at 100 µM (PBRM1-BD2 [6]): 1 ± 0.2 °C

Cc1ccccc1C1NC(=O)c2c(Cl)cccc2N1 (centres unmarked) [Compound 15, 5-Chloro-2-(2-methylphenyl)-2,3-dihydroquinazolin-4(1H)-one]
Kd SMARCA4 (SMARCA4 [7]): did not exhibit detectable thermal stabilization or binding affinity
Kd SMARCA2 (SMARCA2 [8]): did not exhibit detectable thermal stabilization or binding affinity
thermal stabilization against other tested bromodomains [9]: < 1 °C
ASH1L ΔTm (ASH1L): −0.6 °C
CREBBP ΔTm (CREBBP): 0.5 °C
BRD2-BD2 ΔTm (BRD2-BD2): 0.6 °C
PCAF ΔTm (PCAF): 0.5 °C
BRD7 ΔTm (BRD7): 0.2 °C
BRD4-BD1 ΔTm (BRD4-BD1): 0.1 °C
p300 ΔTm (p300): 0.2 °C
BRD3-BD1 ΔTm (BRD3-BD1): 0.3 °C
BRD4-BD2 ΔTm (BRD4-BD2): −3.3 °C
BRD3-BD2 ΔTm (BRD3-BD2): 0.4 °C
BRDT-BD1 ΔTm (BRDT-BD1): −0.7 °C
CECR2 ΔTm (CECR2): −0.5 °C
TRIM33A ΔTm (TRIM33A): 0.8 °C
SMARCA4 ΔTm (SMARCA4 [10]): did not exhibit detectable thermal stabilization or binding affinity
